{"source": "ChEMBL document CHEMBL4402544", "about": "“Reasonably activating Nrf2: A long-term, effective and controllable strategy for neurodegenerative diseases” (Eur J Med Chem, 2020)", "key": {"[1]": {"target": "T1, Nuclear factor erythroid 2-related factor 2 (Homo sapiens) (UniProt Q16236)", "T1 sequence (whole entry)": "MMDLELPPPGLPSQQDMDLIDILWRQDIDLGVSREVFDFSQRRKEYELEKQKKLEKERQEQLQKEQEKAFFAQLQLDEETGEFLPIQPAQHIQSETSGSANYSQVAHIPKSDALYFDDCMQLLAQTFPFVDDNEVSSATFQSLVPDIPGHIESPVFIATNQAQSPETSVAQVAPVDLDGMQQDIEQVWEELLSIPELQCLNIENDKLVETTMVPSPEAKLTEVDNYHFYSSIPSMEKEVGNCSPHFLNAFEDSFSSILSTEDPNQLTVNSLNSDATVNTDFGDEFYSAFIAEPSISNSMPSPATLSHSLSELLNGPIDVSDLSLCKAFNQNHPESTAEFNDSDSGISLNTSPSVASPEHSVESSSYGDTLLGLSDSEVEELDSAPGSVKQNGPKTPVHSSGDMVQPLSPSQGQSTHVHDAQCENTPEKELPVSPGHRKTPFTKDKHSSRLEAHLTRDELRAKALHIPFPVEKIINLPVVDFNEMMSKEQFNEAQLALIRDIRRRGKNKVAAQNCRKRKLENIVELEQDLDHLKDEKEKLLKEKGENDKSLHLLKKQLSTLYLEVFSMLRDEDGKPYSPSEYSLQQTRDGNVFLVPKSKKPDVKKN", "assay": "Activation of Nrf2 (unknown origin) assessed as induction of ARE at 60 uM"}, "[2]": {"target": "T1, Nuclear factor erythroid 2-related factor 2 (Homo sapiens)", "assay": "Activation of Nrf2 in human SK-N-SH cells expressing Nqo1 ARE-Luc reporter plasmid at 10 uM after 18 hrs by luciferase reporter gene assay", "assay_type": "cell-based"}, "[3]": {"target": "Kelch-like ECH-associated protein 1 (Homo sapiens, UniProt Q14145)", "sequence (Q14145 whole entry)": "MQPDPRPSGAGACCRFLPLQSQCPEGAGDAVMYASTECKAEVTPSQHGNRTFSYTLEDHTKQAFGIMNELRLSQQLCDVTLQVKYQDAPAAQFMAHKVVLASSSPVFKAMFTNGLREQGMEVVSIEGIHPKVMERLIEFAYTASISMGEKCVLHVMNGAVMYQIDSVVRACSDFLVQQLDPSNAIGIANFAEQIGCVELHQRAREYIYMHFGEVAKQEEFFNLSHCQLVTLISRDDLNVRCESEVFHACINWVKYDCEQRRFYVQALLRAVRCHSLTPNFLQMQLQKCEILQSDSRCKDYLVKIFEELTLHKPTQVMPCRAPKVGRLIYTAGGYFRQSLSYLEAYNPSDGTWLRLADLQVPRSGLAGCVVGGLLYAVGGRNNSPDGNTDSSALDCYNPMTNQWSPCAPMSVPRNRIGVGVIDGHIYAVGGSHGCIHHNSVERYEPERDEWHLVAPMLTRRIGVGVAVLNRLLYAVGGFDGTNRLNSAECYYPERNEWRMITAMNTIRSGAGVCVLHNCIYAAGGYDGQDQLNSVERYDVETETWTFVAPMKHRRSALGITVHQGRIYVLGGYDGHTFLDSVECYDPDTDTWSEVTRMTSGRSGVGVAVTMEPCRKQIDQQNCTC", "assay": "Binding affinity to Keap1 (unknown origin)"}, "[4]": {"assay": "Neuroprotection activity in human MC65 cells", "assay_type": "functional, cell-based"}}, "note": "Where a SMILES comes first, the peptide text is derived from it. [ ]: non-standard residue; d: D form. ξ: configuration not given here. ξCha = NC(CC1CCCCC1)C(=O)O; ξThz = O=C(O)C1CSCN1", "data": [{"smiles": "C/C=C/C(=O)Oc1ccc2[nH]cc(CCNC(C)=O)c2c1", "values": [{"measurement": "fold change (FC)", "setting": "[1]", "value": 30.7}]}, {"smiles": "C[C@@H]1C(NC(=O)c2ccccc2O)=CC(=O)[C@@H]2O[C@H]12", "values": [{"measurement": "fold change (FC)", "setting": "[2]", "value": "> 4"}]}, {"smiles": "C[C@@H](O)[C@H](NC(=O)[C@H](CCC(=O)O)NC(=O)C1CSCN1C(=O)[C@@H](N)CC(=O)O)C(=O)NCC(=O)N[C@@H](CCC(=O)O)C(=O)NC(CC1CCCCC1)C(=O)O", "note": "(some centres undefined) (H-D[ξThz]ETGE[ξCha]-OH)", "values": [{"measurement": "IC50", "setting": "[3]", "value": 31, "unit": "nM"}]}, {"smiles": "COc1ccc2[nH]cc(CCNC(=O)CC(=O)CCc3ccc(O)cc3)c2c1", "values": [{"measurement": "EC50", "setting": "[4]", "value": 27.6, "unit": "nM"}]}]}
